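At the GI50, growth is halved. TGI: concentration producing complete growth inhibition.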
What was measured:
Assay in all cases: growth of human tumour cells (NCI), 384-well format
[1] = tested on: HCT-15 colon
[2] = tested on: PC-3 prostate
[3] = tested on: OVCAR-3 ovarian
[4] = tested on: UACC-62 melanoma
[5] = tested on: COLO 205 colon
[6] = tested on: OVCAR-4 ovarian
[7] = tested on: SF-268 CNS
[8] = tested on: HCC-2998 colon
[9] = tested on: MDA-MB-231 breast
[10] = tested on: ACHN renal
[11] = tested on: BT-549 breast
[12] = tested on: NCI-H23 lung
[13] = tested on: MALME-3M melanoma
[14] = tested on: DU-145 prostate
[15] = tested on: RPMI-8226 leukemia
[16] = tested on: HOP-62 NSCLC
[17] = tested on: MCF7 breast
[18] = tested on: T-47D breast
[19] = tested on: MDA-MB-435 melanoma
[20] = tested on: LOX IMVI melanoma
[21] = tested on: SNB-75 CNS
[22] = tested on: EKVX NSCLC
[23] = tested on: SNB-19 CNS
[24] = tested on: NCI/ADR-RES ovarian
[25] = tested on: SR leukemia
[26] = tested on: U251 glioblastoma
[27] = tested on: NCI-H322M lung
[28] = tested on: SF-295 CNS
[29] = tested on: UO-31 renal
[30] = tested on: HCT-116 colon
[31] = tested on: KM12 colon
[32] = tested on: HS 578T breast
[33] = tested on: M14 melanoma
[34] = tested on: A498 renal
[35] = tested on: OVCAR-8 ovarian
[36] = tested on: 786-0 renal
[37] = tested on: MDA-MB-468 breast
[38] = tested on: SW-620 colon
[39] = tested on: RXF 393 renal
[40] = tested on: HL-60(TB) leukemia
[41] = tested on: MOLT-4 leukemia
[42] = tested on: A549 NSCLC
[43] = tested on: CAKI-1 renal
[44] = tested on: SK-OV-3 ovarian
[45] = tested on: SK-MEL-28 melanoma
[46] = tested on: UACC-257 melanoma
[47] = tested on: SK-MEL-5 melanoma
[48] = tested on: NCI-H522 lung
[49] = tested on: SN12C renal
[50] = tested on: NCI-H226 lung
[51] = tested on: NCI-H460 NSCLC
[52] = tested on: TK-10 renal
[53] = tested on: IGROV1 ovarian

Cc1ccc(Nc2nccc(N(C)c3ccc4c(C)n(C)nc4c3)n2)cc1S(N)(=O)=O
GI50 [1]: 4.4 µM
TGI [1]: 37.8 µM
GI50 [2]: 11.2 µM
TGI [2]: 70.9 µM
GI50 [3]: 22.6 µM
TGI [3]: > 100 µM
GI50 [4]: 6.37 µM
TGI [4]: 20.8 µM
GI50 [5]: 14 µM
TGI [5]: > 100 µM
GI50 [6]: 9.52 µM
TGI [6]: 35.6 µM
GI50 [7]: 12.6 µM
TGI [7]: > 100 µM
GI50 [8]: > 100 µM
TGI [8]: > 100 µM
GI50 [9]: 5.54 µM
TGI [9]: > 100 µM
GI50 [10]: 6.18 µM
TGI [10]: > 100 µM
GI50 [11]: 1.61 µM
TGI [11]: 16.6 µM
GI50 [12]: 4.79 µM
TGI [12]: 69.6 µM
GI50 [13]: 2.73 µM
TGI [13]: > 100 µM
GI50 [14]: 9.34 µM
TGI [14]: > 100 µM
GI50 [15]: 3.57 µM
TGI [15]: 11.5 µM
GI50 [16]: 6.28 µM
TGI [16]: 34.5 µM
GI50 [17]: 7.41 µM
TGI [17]: > 100 µM
GI50 [18]: 2.52 µM
TGI [18]: 11.4 µM
GI50 [19]: 78.6 µM
TGI [19]: > 100 µM
GI50 [20]: 3.62 µM
TGI [20]: 40.4 µM
GI50 [21]: 2.51 µM
TGI [21]: 29 µM
GI50 [22]: 14.3 µM
TGI [22]: > 100 µM
GI50 [23]: > 100 µM
TGI [23]: > 100 µM
GI50 [24]: 30.5 µM
TGI [24]: 93.6 µM
GI50 [25]: 6.38 µM
TGI [25]: 12.1 µM
GI50 [26]: 9.87 µM
TGI [26]: > 100 µM
GI50 [27]: 7.64 µM
TGI [27]: 45.5 µM
GI50 [28]: 8.89 µM
TGI [28]: > 100 µM
GI50 [29]: 8.29 µM
TGI [29]: > 100 µM
GI50 [30]: 5.38 µM
TGI [30]: > 100 µM
GI50 [31]: 7 µM
TGI [31]: > 100 µM
GI50 [32]: 2.3 µM
TGI [32]: 7.68 µM
GI50 [33]: 8.19 µM
TGI [33]: 52.9 µM
GI50 [34]: 6.05 µM
TGI [34]: 90.9 µM
GI50 [35]: 8.01 µM
TGI [35]: 61.3 µM
GI50 [36]: 4.16 µM
TGI [36]: > 100 µM
GI50 [37]: 2.97 µM
TGI [37]: 62.9 µM
GI50 [38]: > 100 µM
TGI [38]: > 100 µM
GI50 [39]: 0.485 µM
TGI [39]: 3.04 µM
GI50 [40]: 7.4 µM
TGI [40]: 18.3 µM
GI50 [41]: 2.36 µM
TGI [41]: 6.45 µM
GI50 [42]: 4.55 µM
TGI [42]: > 100 µM
GI50 [43]: 3.78 µM
TGI [43]: > 100 µM
GI50 [44]: 6.47 µM
TGI [44]: > 100 µM
GI50 [45]: 55.2 µM
TGI [45]: > 100 µM
GI50 [46]: 12 µM
TGI [46]: 62.2 µM
GI50 [47]: 3.03 µM
TGI [47]: 10.7 µM
GI50 [48]: 6.73 µM
TGI [48]: 99.3 µM
GI50 [49]: 7.86 µM
TGI [49]: > 100 µM
GI50 [50]: 1.99 µM
TGI [50]: 13.3 µM
GI50 [51]: 5.27 µM
TGI [51]: > 100 µM
GI50 [52]: 31.6 µM
TGI [52]: > 100 µM
GI50 [53]: 5.68 µM
TGI [53]: > 100 µM

From PubChem BioAssay (NCI)
